15 compounds from ChEMBL document CHEMBL4330122, “Modified ribavirin analogues as antiviral agents against Junín virus” (Bioorg Med Chem Lett, 2019) can be followed below.

SMILES strings stand for the structures. Bounds are passed on as bounds.

A short description of data set [1]: in vitro. The settings on record: human, A549 cells.
Data set [2] has as its system Junin virus. In kind it is functional, organism-based. The following applies: Mammarenavirus juninense, IV4454, Vero, 48 h.
The nature of data set [3]: Cytotoxicity against human A549 cells assessed as reduction in cell viability after 48 hrs by MTT assay. Type of data set: cell-based. Background: Tetrazolium dyes change colour on reduction, which living cells bring about.
The nature of data set [4]: Cytotoxicity against African green monkey Vero cells assessed as reduction in cell viability after 48 hrs by MTT assay. In kind it is cell-based. The following applies: chlorocebus sabaeus.
Data set [5] can be described thus: in vitro. The settings on record: monkey, Vero cells.
The subject of data set [6] is Junin virus. In kind it is functional, organism-based. The following applies: Mammarenavirus juninense, IV4454, A549, 48 h.
Data set [7] can be described thus: Solubility of the compound in water. Type of data set: physicochemical.

As usually defined, the EC50 is the concentration at which the effect is half-maximal. For orientation: CC50 means the concentration giving 50% cytotoxicity. `CCCCn1cc(CO[C@@H]2O[C@H](CN=[N+]=[N-])[C@H]3OC(C)(C)O[C@@H]23)nn1`: the selectivity ratio in data set [1] was 38.5; in data set [5], 57.9. For the same compound, the EC50 turned out to be 13.2 µM in data set [2] and 13.6 µM in data set [6]. Further, the CC50 at 48 h was 525 µM in data set [3] and 762 µM in data set [4].
Turning to `CC1(C)O[C@@H]2[C@H](O1)[C@@H](CO)O[C@H]2n1cc(CO)nn1`, the selectivity ratio is more than 11.6 in data set [1] and more than 19.5 in data set [5]. The values for the EC50 in data set [2] and in data set [6] were 51.3 µM and 86.4 µM, respectively. Also, the 50% cytotoxic concentration (CC50) at 48 h in data set [3] and in data set [4] was more than 1000 µM throughout.
For the compound `OCc1cn([C@@H]2O[C@H](CO)[C@@H](O)[C@H]2O)nn1`, the values for the selectivity ratio in data set [1] and in data set [5] were more than 19.7 and more than 4.7, respectively. The EC50 in data set [2] worked out at 215 µM; in data set [6], 50.7 µM. For the same compound, the CC50 at 48 h in data set [3] and in data set [4] was more than 1000 µM each time.
Turning to `OC[C@H]1O[C@@H](n2cc(COCC(COCc3cn([C@@H]4O[C@H](CO)[C@@H](O)[C@H]4O)nn3)(COCc3cn([C@@H]4O[C@H](CO)[C@@H](O)[C@H]4O)nn3)COCc3cn([C@@H]4O[C@H](CO)[C@@H](O)[C@H]4O)nn3)nn2)[C@H](O)[C@@H]1O`, the concentration for a half-maximal effect (EC50) in data set [2] and in data set [6] was more than 500 µM each time. For the same compound, the CC50 at 48 h in data set [3] and in data set [4] was more than 1000 µM in each case.
Consider `CCCCn1cc(CO[C@@H]2O[C@H](CO)[C@H]3OC(C)(C)O[C@@H]23)nn1`, for which the selectivity ratio is more than 17.9 in data set [1] and more than 17.5 in data set [5]. Besides, the EC50 was 57.2 µM in data set [2] and 55.9 µM in data set [6]. For the same compound, the CC50 at 48 h in data set [3] and in data set [4] was more than 1000 µM in each case.
With `CC1(C)O[C@H]2[C@H](OCc3cn(CC(Cn4cc(CO[C@@H]5O[C@H](CN=[N+]=[N-])[C@H]6OC(C)(C)O[C@@H]56)nn4)(Cn4cc(CO[C@@H]5O[C@H](CN=[N+]=[N-])[C@H]6OC(C)(C)O[C@@H]56)nn4)Cn4cc(CO[C@@H]5O[C@H](CN=[N+]=[N-])[C@H]6OC(C)(C)O[C@@H]56)nn4)nn3)O[C@H](CN=[N+]=[N-])[C@H]2O1` (some centres not stated), the concentration giving a half-maximal response (EC50) in data set [2] and in data set [6] was more than 500 µM in each case. The CC50 at 48 h in data set [3] and in data set [4] was more than 1000 µM each time.
What is called solubility is how much of the substance goes into solution per volume. For `CC1(C)O[C@H]2[C@H](OCc3cn(CC(Cn4cc(CO[C@@H]5O[C@H](Cn6cc(COC[C@H]7OC(O)[C@H](O)[C@@H](O)[C@H]7O)nn6)[C@H]6OC(C)(C)O[C@@H]56)nn4)(Cn4cc(CO[C@@H]5O[C@H](Cn6cc(COC[C@H]7OC(O)[C@H](O)[C@@H](O)[C@H]7O)nn6)[C@H]6OC(C)(C)O[C@@H]56)nn4)Cn4cc(CO[C@@H]5O[C@H](Cn6cc(COC[C@H]7OC(O)[C@H](O)[C@@H](O)[C@H]7O)nn6)[C@H]6OC(C)(C)O[C@@H]56)nn4)nn3)O[C@H](Cn3cc(COC[C@H]4OC(O)[C@H](O)[C@@H](O)[C@H]4O)nn3)[C@H]2O1` (some centres not stated), the 50% effective concentration (EC50) in data set [2] and in data set [6] was more than 500 µM throughout. Moreover, the 50% cytotoxic concentration (CC50) at 48 h in data set [3] and in data set [4] was more than 1000 µM throughout. Further, the solubility in data set [7] is more than 100 mg/mL.
Consider `CC(=O)OC[C@H]1O[C@@H](n2cc(CO)nn2)[C@H](OC(C)=O)[C@@H]1OC(C)=O`, for which the selectivity ratio in data set [1] was more than 3.1; in data set [5] it was more than 7.7. The results for the EC50 in data set [2] and in data set [6] were 130 µM and 322 µM, respectively. The CC50 at 48 h in data set [3] and in data set [4] was more than 1000 µM throughout.
`CC1(C)O[C@@H]2[C@H](O1)[C@@H](CO)O[C@H]2n1cc(COCC(COCc2cn([C@@H]3O[C@H](CO)[C@H]4OC(C)(C)O[C@H]43)nn2)(COCc2cn([C@@H]3O[C@H](CO)[C@H]4OC(C)(C)O[C@H]43)nn2)COCc2cn([C@@H]3O[C@H](CO)[C@H]4OC(C)(C)O[C@H]43)nn2)nn1`: the EC50 in data set [2] and in data set [6] was more than 500 µM throughout. Besides, the half-maximal cytotoxic concentration (CC50) at 48 h in data set [3] and in data set [4] was more than 1000 µM throughout.
For `CC1(C)O[C@H]2[C@H](OCc3cn(CC(Cn4cc(CO[C@@H]5O[C@H](CO)[C@H]6OC(C)(C)O[C@@H]56)nn4)(Cn4cc(CO[C@@H]5O[C@H](CO)[C@H]6OC(C)(C)O[C@@H]56)nn4)Cn4cc(CO[C@@H]5O[C@H](CO)[C@H]6OC(C)(C)O[C@@H]56)nn4)nn3)O[C@H](CO)[C@H]2O1`, the selectivity ratio stood at 6.2 in data set [1] and 6.5 in data set [5]. For the same compound, the concentration for a half-maximal effect (EC50) is 35.5 µM in data set [2] and 33.4 µM in data set [6]. Besides, the CC50 at 48 h in data set [3] amounted to 209 µM; in data set [4], 233 µM.
On to `CC1(C)O[C@@H]2[C@H](O1)[C@@H](Cn1cc(COC[C@@H](O)[C@H](O)[C@H](O)[C@@H](O)CO)nn1)O[C@H]2n1cc(COCC(COCc2cn([C@@H]3O[C@H](Cn4cc(COC[C@@H](O)[C@H](O)[C@H](O)[C@@H](O)CO)nn4)[C@H]4OC(C)(C)O[C@H]43)nn2)(COCc2cn([C@@H]3O[C@H](Cn4cc(COC[C@H](O)[C@@H](O)[C@@H](O)[C@H](O)CO)nn4)[C@H]4OC(C)(C)O[C@H]43)nn2)COCc2cn([C@@H]3O[C@H](Cn4cc(COC[C@H](O)[C@@H](O)[C@@H](O)[C@H](O)CO)nn4)[C@H]4OC(C)(C)O[C@H]43)nn2)nn1`, for which the EC50 in data set [2] and in data set [6] was more than 500 µM throughout. In addition, the 50% cytotoxic concentration (CC50) at 48 h in data set [3] and in data set [4] was more than 1000 µM each time. In data set [7], this compound had a solubility of more than 100 mg/mL.
For `NC(=O)c1ncn([C@@H]2O[C@H](CO)[C@@H](O)[C@H]2O)n1` [RIBAVIRIN], the selectivity ratio is 15.9 in data set [1] and more than 21.6 in data set [5]. Also, the CC50 at 48 h in data set [3] was 307 µM; in data set [4], more than 400 µM. This compound also displayed an EC50 in data set [6] of 19.2 µM.
Regarding `CCCCn1cc(COC[C@@H](O)[C@H](O)[C@H](O)[C@@H](O)CO)nn1`, the EC50 in data set [2] and in data set [6] was more than 500 µM throughout. Further, the CC50 at 48 h in data set [3] and in data set [4] was more than 1000 µM throughout. The same compound showed a solubility in data set [7] of more than 100 mg/mL.
As for `OC[C@@H](O)[C@H](O)[C@H](O)[C@@H](O)COCc1cn(CC(Cn2cc(COC[C@@H](O)[C@H](O)[C@H](O)[C@@H](O)CO)nn2)(Cn2cc(COC[C@@H](O)[C@H](O)[C@H](O)[C@@H](O)CO)nn2)Cn2cc(COC[C@@H](O)[C@H](O)[C@H](O)[C@@H](O)CO)nn2)nn1`, the 50% effective concentration (EC50) in data set [2] and in data set [6] was more than 500 µM each time. Moreover, the half-maximal cytotoxic concentration (CC50) at 48 h in data set [3] and in data set [4] was more than 1000 µM in each case. In data set [7], the solubility was more than 100 mg/mL.
Consider `CC(=O)OC[C@H]1O[C@@H](n2cc(COCC(COCc3cn([C@@H]4O[C@H](COC(C)=O)[C@@H](OC(C)=O)[C@H]4OC(C)=O)nn3)(COCc3cn([C@@H]4O[C@H](COC(C)=O)[C@@H](OC(C)=O)[C@H]4OC(C)=O)nn3)COCc3cn([C@@H]4O[C@H](COC(C)=O)[C@@H](OC(C)=O)[C@H]4OC(C)=O)nn3)nn2)[C@H](OC(C)=O)[C@@H]1OC(C)=O`, for which the EC50 in data set [2] and in data set [6] was more than 500 µM each time. Besides, the CC50 at 48 h in data set [3] and in data set [4] was more than 1000 µM each time.
